Measured values published in ChEMBL document CHEMBL4219215, “Discovery of {4-[4,9-bis(ethyloxy)-1-oxo-1,3-dihydro-2H-benzo[f]isoindol-2-yl]-2-fluorophenyl}acetic acid (GSK726701A), a novel EP4 receptor partial agonist for the treatment of pain” (Bioorg Med Chem Lett, 2018).
pIC50: −log10 of the molar value.

Experiments:
[1] = Intrinsic clearance in dog liver microsomes; type: ADME, Canis lupus familiaris, microsome
[2] = Half life in orally dosed dog; type: ADME, organism-based, Canis lupus familiaris; conditions: in vivo, po
Rattus norvegicus [3] = assay: Analgesic activity in orally dosed rat model of Freund's complete adjuvant-induced acute inflammatory pain assessed as reversal of FCA-induced hypersensitivity; type: functional; conditions: po
[4] = Blood clearance in rat at 1 mg/kg, po; type: ADME, organism-based
Rattus norvegicus [5] = assay: Analgesic activity in rat model of chronic constriction injury-induced neuropathic pain assessed as reversal of mechanical allodynia at 3 mg/kg dosed twice daily for 8 days; type: functional, organism-based; conditions: TDE = time-dependent effect
[6] = biological target: Prostacyclin receptor (Homo sapiens) (UniProt P43119); assay: Agonist activity at IP receptor (unknown origin) assessed as induction of receptor activation at 1 uM; type: functional
Sequence of Prostacyclin receptor (Homo sapiens) (P43119 whole entry): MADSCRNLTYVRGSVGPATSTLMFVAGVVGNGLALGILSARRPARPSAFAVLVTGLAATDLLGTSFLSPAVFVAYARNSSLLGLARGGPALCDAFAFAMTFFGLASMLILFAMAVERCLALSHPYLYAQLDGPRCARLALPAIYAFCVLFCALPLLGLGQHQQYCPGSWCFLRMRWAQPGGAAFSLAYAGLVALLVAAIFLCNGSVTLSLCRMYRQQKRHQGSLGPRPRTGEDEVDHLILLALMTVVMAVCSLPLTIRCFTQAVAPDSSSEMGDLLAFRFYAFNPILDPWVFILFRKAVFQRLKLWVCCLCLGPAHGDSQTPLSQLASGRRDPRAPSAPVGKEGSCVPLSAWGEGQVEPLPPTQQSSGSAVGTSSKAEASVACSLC

Cytochrome P450 2D6 = Cytochrome P450 2D6 (Homo sapiens, UniProt P10635); assay: Inhibition of human recombinant CYP2D6; type: ADME; conditions: human, recombinant enzyme
Sequence of Cytochrome P450 2D6 (P10635 whole entry): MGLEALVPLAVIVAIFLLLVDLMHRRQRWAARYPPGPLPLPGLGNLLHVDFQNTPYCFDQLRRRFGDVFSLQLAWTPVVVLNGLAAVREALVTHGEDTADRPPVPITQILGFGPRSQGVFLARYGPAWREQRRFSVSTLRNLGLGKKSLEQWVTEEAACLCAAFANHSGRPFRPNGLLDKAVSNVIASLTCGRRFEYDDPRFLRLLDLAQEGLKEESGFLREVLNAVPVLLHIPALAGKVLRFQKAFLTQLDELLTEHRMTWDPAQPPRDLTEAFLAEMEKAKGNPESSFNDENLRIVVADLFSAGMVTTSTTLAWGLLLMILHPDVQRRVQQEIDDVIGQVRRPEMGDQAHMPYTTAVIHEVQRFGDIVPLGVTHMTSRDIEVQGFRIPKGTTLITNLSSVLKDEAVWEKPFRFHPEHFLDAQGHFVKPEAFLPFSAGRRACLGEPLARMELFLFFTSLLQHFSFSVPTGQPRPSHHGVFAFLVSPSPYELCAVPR

[7] = biological target: Prostacyclin receptor (Homo sapiens) (UniProt P43119); assay: Antagonist activity at IP receptor (unknown origin) assessed as inhibition of receptor activation at 1 uM; type: functional
[8] = biological target: T1, Prostaglandin D2 receptor (Homo sapiens, UniProt Q13258); assay: Activity at DP1 receptor (unknown origin)
T1 sequence (Q13258 whole entry): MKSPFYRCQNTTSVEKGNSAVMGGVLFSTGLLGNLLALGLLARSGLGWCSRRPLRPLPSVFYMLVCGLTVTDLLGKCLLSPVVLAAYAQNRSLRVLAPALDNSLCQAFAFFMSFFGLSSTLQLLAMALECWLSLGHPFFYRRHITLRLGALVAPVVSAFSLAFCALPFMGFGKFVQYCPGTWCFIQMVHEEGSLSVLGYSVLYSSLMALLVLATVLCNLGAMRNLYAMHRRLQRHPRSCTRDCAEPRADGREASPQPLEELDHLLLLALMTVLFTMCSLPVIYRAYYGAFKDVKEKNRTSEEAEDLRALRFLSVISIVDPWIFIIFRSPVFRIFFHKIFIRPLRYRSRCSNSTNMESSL

[9] = Protein binding in rat plasma; type: ADME, cell-free; conditions: read-out: PPB (converted)
Cytochrome P450 2C19 = Cytochrome P450 2C19 (Homo sapiens, UniProt P33261); assay: Inhibition of human recombinant CYP2C19; type: ADME; conditions: human, recombinant enzyme
Sequence of Cytochrome P450 2C19 (P33261 whole entry): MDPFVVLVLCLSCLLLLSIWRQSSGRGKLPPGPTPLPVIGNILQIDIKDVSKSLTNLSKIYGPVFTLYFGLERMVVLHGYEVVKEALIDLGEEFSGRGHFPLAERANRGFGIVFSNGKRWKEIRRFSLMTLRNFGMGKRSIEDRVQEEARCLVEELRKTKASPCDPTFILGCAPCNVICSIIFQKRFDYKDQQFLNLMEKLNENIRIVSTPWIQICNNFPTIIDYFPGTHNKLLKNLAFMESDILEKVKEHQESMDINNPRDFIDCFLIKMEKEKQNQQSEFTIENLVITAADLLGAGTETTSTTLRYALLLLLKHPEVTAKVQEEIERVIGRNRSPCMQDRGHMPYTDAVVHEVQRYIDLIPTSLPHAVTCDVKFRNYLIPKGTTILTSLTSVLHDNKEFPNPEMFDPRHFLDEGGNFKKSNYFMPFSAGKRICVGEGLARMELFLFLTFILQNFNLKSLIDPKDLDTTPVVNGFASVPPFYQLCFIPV

[10] = Intrinsic clearance in rat liver microsomes; type: ADME, microsome
Rattus norvegicus [11] = assay: Analgesic activity in rat model of chronic constriction injury-induced neuropathic pain assessed as reversal of mechanical allodynia at 3 mg/kg dosed twice daily for 8 days relative to untreated control; type: functional; conditions: 192 h
[12] = biological target: Prostaglandin F2-alpha receptor (Homo sapiens, UniProt P43088); assay: Activity at FP receptor (unknown origin)
Sequence of Prostaglandin F2-alpha receptor (P43088 whole entry): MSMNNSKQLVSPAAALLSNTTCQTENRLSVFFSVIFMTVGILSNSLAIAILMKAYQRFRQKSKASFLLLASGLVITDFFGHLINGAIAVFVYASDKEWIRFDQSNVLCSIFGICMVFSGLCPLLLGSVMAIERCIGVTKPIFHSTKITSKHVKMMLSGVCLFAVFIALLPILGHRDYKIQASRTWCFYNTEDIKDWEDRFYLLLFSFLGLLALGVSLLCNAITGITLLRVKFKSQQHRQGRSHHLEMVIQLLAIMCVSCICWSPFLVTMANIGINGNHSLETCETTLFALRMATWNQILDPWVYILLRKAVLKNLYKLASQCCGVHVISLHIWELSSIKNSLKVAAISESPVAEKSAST

Cytochrome P450 1A2 = biological target: T2, Cytochrome P450 1A2 (Homo sapiens, UniProt P05177); assay: Inhibition of human recombinant CYP1A2; type: ADME; conditions: human, recombinant enzyme
T2 sequence (P05177 whole entry): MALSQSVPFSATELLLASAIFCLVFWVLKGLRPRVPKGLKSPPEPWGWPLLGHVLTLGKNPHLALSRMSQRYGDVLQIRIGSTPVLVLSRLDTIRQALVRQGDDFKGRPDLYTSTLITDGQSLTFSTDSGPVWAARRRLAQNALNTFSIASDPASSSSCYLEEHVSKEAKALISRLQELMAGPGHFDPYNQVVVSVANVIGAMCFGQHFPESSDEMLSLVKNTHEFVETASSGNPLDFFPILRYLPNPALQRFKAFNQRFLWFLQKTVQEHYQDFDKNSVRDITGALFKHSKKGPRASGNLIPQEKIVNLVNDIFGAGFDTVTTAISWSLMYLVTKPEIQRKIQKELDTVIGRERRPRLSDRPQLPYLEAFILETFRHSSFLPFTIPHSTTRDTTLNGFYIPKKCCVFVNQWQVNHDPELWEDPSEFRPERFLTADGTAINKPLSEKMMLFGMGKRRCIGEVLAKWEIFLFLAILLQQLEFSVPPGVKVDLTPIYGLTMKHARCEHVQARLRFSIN

[13] = Half life in orally dosed cynomolgus monkey; type: ADME, organism-based, Macaca fascicularis; conditions: in vivo, po
[14] = Protein binding in dog plasma; type: ADME, cell-free, Canis lupus familiaris; conditions: read-out: PPB (converted)
[15] = biological target: Prostaglandin E2 receptor EP2 subtype (Homo sapiens) (UniProt P43116); assay: Agonist activity at EP2 receptor (unknown origin) assessed as induction of receptor activation at 1 uM; type: functional
Sequence of Prostaglandin E2 receptor EP2 subtype (Homo sapiens) (P43116 whole entry): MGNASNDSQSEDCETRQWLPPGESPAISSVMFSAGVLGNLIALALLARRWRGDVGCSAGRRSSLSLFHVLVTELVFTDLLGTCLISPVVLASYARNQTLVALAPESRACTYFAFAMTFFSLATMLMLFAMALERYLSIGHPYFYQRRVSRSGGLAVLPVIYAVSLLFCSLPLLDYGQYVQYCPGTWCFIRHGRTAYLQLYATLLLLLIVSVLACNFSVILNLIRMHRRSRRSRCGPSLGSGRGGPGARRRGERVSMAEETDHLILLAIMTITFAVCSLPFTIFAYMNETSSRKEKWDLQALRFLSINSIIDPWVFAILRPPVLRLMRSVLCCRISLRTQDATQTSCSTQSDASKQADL

Rattus norvegicus [16] = assay: Analgesic activity in rat model of chronic joint pain dosed twice daily for 5 days; type: functional; conditions: 120 h
Homo sapiens [17] = species on record: Homo sapiens; assay: Selectivity index, ratio of pIC50 for EP3 receptor (unknown origin) to pEC50 for partial agonist activity at human EP4 receptor expressed in HEK293-AEQ17 cells; type: cell-based
Homo sapiens [18] = species on record: Homo sapiens; assay: Selectivity index, ratio of agonist activity at EP2 receptor (unknown origin) to pEC50 for partial agonist activity at human EP4 receptor expressed in HEK293-AEQ17 cells; type: cell-based
[19] = Oral bioavailability in cynomolgus monkey; type: ADME, organism-based, Macaca fascicularis; conditions: in vivo
[20] = Total drug level in blood of orally dosed rat model of Freund's complete adjuvant-induced acute inflammatory pain assessed as reduction in reversal of hypersensitivity; type: ADME, organism-based; conditions: in vivo, po, read-out: Drug uptake
Rattus norvegicus [21] = assay: Analgesic activity in rat model of Freund's complete adjuvant-induced acute inflammatory pain assessed as reversal of FCA-induced hypersensitivity at 3 mg/kg, po relative to untreated control; type: functional
[22] = Ratio of drug level in brain to blood in rat at 1 mg/kg, po; type: ADME, organism-based
Cynomolgus monkey = assay: Blood clearance in orally dosed cynomolgus monkey; type: ADME, organism-based, Macaca fascicularis; conditions: in vivo, po
Homo sapiens [23] = species on record: Homo sapiens; assay: Selectivity index, ratio of antagonist activity at IP receptor (unknown origin) to pEC50 for partial agonist activity at human EP4 receptor expressed in HEK293-AEQ17 cells; type: cell-based
Homo sapiens [24] = species on record: Homo sapiens; assay: Selectivity index, ratio of agonist activity at IP receptor (unknown origin) to pEC50 for partial agonist activity at human EP4 receptor expressed in HEK293-AEQ17 cells; type: cell-based
Rattus norvegicus [25] = assay: Analgesic activity in rat model of chronic joint pain assessed as reversal of pain by measuring weight bearing level at 1 mg/kg, po dosed twice daily for 5 days relative to untreated control; type: functional; conditions: 120 h
Cytochrome P450 2C9 = Cytochrome P450 2C9 (Homo sapiens, UniProt P11712); assay: Inhibition of human recombinant CYP2C9; type: ADME; conditions: human, recombinant enzyme
Sequence of Cytochrome P450 2C9 (P11712 whole entry): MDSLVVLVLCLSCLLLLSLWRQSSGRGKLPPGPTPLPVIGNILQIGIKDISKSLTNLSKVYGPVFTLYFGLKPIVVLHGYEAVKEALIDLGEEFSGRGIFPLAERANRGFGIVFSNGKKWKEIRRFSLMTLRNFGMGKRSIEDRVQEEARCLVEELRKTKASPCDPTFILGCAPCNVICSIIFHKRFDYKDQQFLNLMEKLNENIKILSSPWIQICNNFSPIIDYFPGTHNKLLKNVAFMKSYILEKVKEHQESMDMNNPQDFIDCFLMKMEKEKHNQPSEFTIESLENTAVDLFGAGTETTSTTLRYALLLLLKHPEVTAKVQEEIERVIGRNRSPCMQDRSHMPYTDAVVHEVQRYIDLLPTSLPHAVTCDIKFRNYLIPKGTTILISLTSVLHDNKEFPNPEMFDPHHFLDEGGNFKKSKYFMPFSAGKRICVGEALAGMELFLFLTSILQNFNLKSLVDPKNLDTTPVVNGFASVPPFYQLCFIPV

[26] = Oral bioavailability in dog; type: ADME, organism-based, Canis lupus familiaris; conditions: in vivo
[27] = Half life in rat at 1 mg/kg, po; type: ADME, organism-based; conditions: in vivo
Cytochrome P450 3A4 = Cytochrome P450 3A4 (Homo sapiens, UniProt P08684); assay: Inhibition of human recombinant CYP3A4 using DEF substrate; type: ADME; conditions: human, recombinant enzyme
Sequence of Cytochrome P450 3A4 (P08684 whole entry): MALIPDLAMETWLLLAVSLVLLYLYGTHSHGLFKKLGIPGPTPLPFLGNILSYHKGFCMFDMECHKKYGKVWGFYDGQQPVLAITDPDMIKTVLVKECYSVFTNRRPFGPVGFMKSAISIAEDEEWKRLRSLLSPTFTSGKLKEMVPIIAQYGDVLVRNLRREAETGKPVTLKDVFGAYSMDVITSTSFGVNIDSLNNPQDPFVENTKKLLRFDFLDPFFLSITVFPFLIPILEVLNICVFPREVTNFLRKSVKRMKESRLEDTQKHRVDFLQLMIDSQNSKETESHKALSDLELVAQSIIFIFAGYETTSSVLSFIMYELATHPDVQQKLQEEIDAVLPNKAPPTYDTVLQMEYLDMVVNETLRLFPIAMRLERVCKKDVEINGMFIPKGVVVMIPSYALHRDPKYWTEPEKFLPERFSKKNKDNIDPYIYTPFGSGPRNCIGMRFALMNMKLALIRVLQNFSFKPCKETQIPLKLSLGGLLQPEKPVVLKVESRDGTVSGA

Thromboxane A2 receptor = biological target: T3, Thromboxane A2 receptor (Homo sapiens, UniProt P21731); assay: Activity at TP receptor (unknown origin)
T3 sequence (P21731 whole entry): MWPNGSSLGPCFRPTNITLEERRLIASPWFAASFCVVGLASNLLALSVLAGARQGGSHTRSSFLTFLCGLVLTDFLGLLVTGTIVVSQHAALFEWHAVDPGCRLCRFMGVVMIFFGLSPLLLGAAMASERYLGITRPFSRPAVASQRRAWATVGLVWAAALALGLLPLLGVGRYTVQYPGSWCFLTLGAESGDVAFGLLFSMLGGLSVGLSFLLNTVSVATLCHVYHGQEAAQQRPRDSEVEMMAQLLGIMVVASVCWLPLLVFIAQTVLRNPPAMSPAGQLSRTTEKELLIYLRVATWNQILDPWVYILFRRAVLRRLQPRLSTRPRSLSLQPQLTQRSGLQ

With `CCOc1c2c(c(OCC)c3ccccc13)C(=O)N(c1ccc(CC(=O)O)c(F)c1)C2` the CLH [1] was less than 1 mL/min/g, the half-life [2] was 480 min and the ED50 (Rattus norvegicus [3]) was 0.2 to 0.22 mg/kg. For the same molecule, the CL/F [4] was 1 mL/min/kg, the Activity (Rattus norvegicus [5]) was “Tde” and the Activity [6] was 11%. It also gave an INH (Cytochrome P450 2D6) greater than 100 µM, an inhibition [7] of 31% and a pIC50 [8] of less than 4.50. The fraction unbound [9] was 0.002, the INH (Cytochrome P450 2C19) was greater than 100 µM and the CLH [10] was less than 1 mL/min/g. It also gave an inhibition in vivo at 3 mg/kg (Rattus norvegicus [11]) of 100%, a pIC50 [12] of less than 5.00 and an INH (Cytochrome P450 1A2) greater than 100 µM. It also gave a half-life [13] of 300 to 600 min, a fraction unbound [14] of 0.009 and an Activity [15] of 14%. The ED50 (Rattus norvegicus [16]) was 0.23 mg/kg, the Selectivity ratio (Homo sapiens [17]) was greater than 100 and the Selectivity ratio (Homo sapiens [18]) was greater than 100. It also gave a bioavailability [19] of 50%, a concentration [20] of 600 nM and an Activity (Rattus norvegicus [21]) of 80%. It also gave a Kp [22] of less than 0.05, a clearance (Cynomolgus monkey) of 4 mL/min/kg and a Selectivity ratio (Homo sapiens [23]) greater than 100. For the same molecule, the Selectivity ratio (Homo sapiens [24]) was greater than 100, the inhibition in vivo at 1 mg/kg (Rattus norvegicus [25]) was 100% and the INH (Cytochrome P450 2C9) was greater than 100 µM. The bioavailability [26] was 69%, the half-life [27] was 360 min and the INH (Cytochrome P450 3A4) was greater than 100 µM. The pIC50 (Thromboxane A2 receptor) was less than 5.00.
